The assay concerns dendritic cells. Conditions: FCCP incorporated in PLGA-G4 or PLGA-G4-cyclodextrin nanoparticles; FIG. 8.

Protocol: The prepared nanoparticles were tested for their ability to disrupt endosomes. Particles co-encapsulating the OVA peptide or GFP associated with the dendrimer were incubated at a concentration of 50 μg/ml with 1E5 BMDCs for 24 hours. Liposomal disruption was assessed both qualitatively via fluorescence microscopy of GFP in the cytosol or quantitatively by amount of OVA antigen presented via MHC Class I. Antigen presentation on Class I MHC takes place via cytosolic transport and OVA peptide/MHC Class I was detected specifically using the antibody 24D16-PE.

In the case of `N#CC(C#N)=NNc1ccc(OC(F)(F)F)cc1` [FCCP, carbonyl cyanide 4-(trifluoromethoxy) phenylhydrazone], the “ability to disrupt endosomes” value is on record as “significantly enhances”.

For the origin of these results see patent US10265407B2, “Modular nanodevices for smart adaptable vaccines” (Yale University, priority 2007, dated 2019).
